Reference: US20100266674A1, “L-ODDC PRODRUGS FOR CANCER” (UNIVERSITY OF GEORGIA RESEARCH FOUNDATION, INC., priority 2006, published 2010)

How the values were obtained:
[1] = test system: A549 non-small cell lung cancer cell line; assay: SRB chemosensitivity (cytotoxicity) assay, A549; format: cell-based; details: SRB test, 72 h incubation, mean of 3 experiments
Experimental: (§1) The compounds were evaluated on two non-small cell lung cancer cell lines (A549 and SW1573). These cell lines were characterized for deoxynucleoside analog sensitivity and activity of dCK previously.
(§2) The chemosensitivity assay used in this study was the sulforhodamineB (SRB) assay as described earlier (Keepers et al, Eur J. Cancer, 1991; Rubinstein et al, J. Natl. Cancer Inst., 1990). Cells were transferred to 96 wells plates on day 0; on day 1 a serial dilution of the drug was made from a stock solution and added to the cells in triplicate. After an incubation period of 72 h the cells were fixed for 1 hr at 4° C. with 50% trichloroacetic acid washed, air-dried and stained with 0.4% SRB. The optical density was measured at 492 nm with a microplate reader (Tecan, Salzburg, Austria).
(§3) The results were expressed as percentage of control growth: […]
(§4) The data were plotted in a graph to give a growth inhibition curve. From this growth inhibition curve the […] value was determined by interpolating at the 50% growth level. […] LogP was estimated using ChemDraw 8.0 ultra. IC50s are expressed as mean of 3 experiments.

[2] = test system: SW1573 non-small cell lung cancer cell line; assay: SRB chemosensitivity (cytotoxicity) assay, SW1573; format: cell-based; details: SRB test, 72 h incubation, mean of 3 experiments
Experimental: as §1, §2, §3, §4

[3] = test system: Panc-02 pancreatic cancer cell line; assay: SRB cytotoxicity assay, Panc-02; format: cell-based
Experimental: (§5) Sensitivity to four prodrugs with linear aliphatic chains of different length was determined by the SRB cytotoxicity assay^[12], the IC50 value of the drug was determined in the different cell lines by interpolating the growth inhibition curves. The tests were performed on the BxPC-3 and Panc-02 pancreatic cancer cell lines.

[4] = test system: BxPC-3 pancreatic cancer cell line; assay: SRB cytotoxicity assay, BxPC-3; format: cell-based; details: BxPC-3 (BxPC3) pancreatic cancer cell line
Experimental: as §5

[5] = cited from earlier work
A549 = assay: SRB assay with addition of dipyridamole (role of ENT transport), A549; format: cell-based; details: A549, dipyridamole added to the cells
Text: These cell lines were chosen because they had been characterized earlier for sensitivity to gemcitabine and for the activity of the rate-limiting enzyme in the activation of gemcitabine and troxacitabine, deoxycytidine kinase (dCK); […] In addition, non-small cell lung cancer is routinely being treated with gemcitabine containing regimens. […] It should be noted that it is unlikely that they are being phosphorylated as prodrugs due to their steric hindrance. […] In a cell line we tested whether transport (ENT) would play a role by addition of dipyridamole to the cells. In A549 dipyridamole gave a 2-fold increase in the IC50, but this was not observed for the prodrugs. […] It is likely that these cycloalkyl and aromatic moieties at the N4 position of compounds 6l-t may render these compounds poor substrates of intracellular amidases. We therefore speculate that the amidase-catalyzed hydrolysis of the prodrugs may play an important role, allowing the release of troxacitabine into the intracellular compartment for activation (the triphosphate). The better activity profile of prodrugs 6h-k could have been the result of an increased uptake due to the high lipophilicity as well as of a high rate of amidase-catalyzed cleavage of the linear aliphatic derivatives intracellularly.

| Compound | IC50 ([1]; Homo sapiens, A549) [µM] | IC50 ([2]; Homo sapiens, SW1573) [µM] | other results |
| --- | --- | --- | --- |
| CC(=O)Nc1ccn([C@@H]2CO[C@H](CO)O2)c(=O)n1 [Compound 6a, (−)-(2S,4S)-1-[2-(Hydroxymethyl)-1,3-dioxolan-4-yl]-4-N-acetyl-cytosine] | 6.87 | 10.7 |  |
| CCCC(=O)Nc1ccn([C@@H]2CO[C@H](CO)O2)c(=O)n1 [Compound 6c, (−)-(2S,4S)-1-[2-(Hydroxymethyl)-1,3-dioxolan-4-yl]-4-N-butirryl-cytosine] |  |  | IC50 [1]: 6.6 µM; IC50 [2]: 8.07 µM |
| CCCCC(=O)Nc1ccn([C@@H]2CO[C@H](CO)O2)c(=O)n1 [Compound 6e, (−)-(2S,4S)-1-[2-(Hydroxymethyl)-1,3-dioxolan-4-yl]-4-N-valeryl-cytosine] | 5.23 | 9.13 |  |
| CCCCCCC(=O)Nc1ccn([C@@H]2CO[C@H](CO)O2)c(=O)n1 [Compound 6g, (−)-(2S,4S)-1-[2-(Hydroxymethyl)-1,3-dioxolan-4-yl]-4-N-heptanoyl-cytosine] | 1.04 | 2.4 |  |
| CCCCCCCCC(=O)Nc1ccn([C@@H]2CO[C@H](CO)O2)c(=O)n1 [Compound 6h, (−)-(2S,4S)-1-[2-(Hydroxymethyl)-1,3-dioxolan-4-yl]-4-N-nonanoyl-cytosine] | 0.046 | 0.276 |  |
| CCCCCCCCCC(=O)Nc1ccn([C@@H]2CO[C@H](CO)O2)c(=O)n1 [Compound 6i, (−)-(2S,4S)-1-[2-(Hydroxymethyl)-1,3-dioxolan-4-yl]-4-N-decanoyl-cytosine] | 0.024 | 0.04 | melting point: 141 to 143 °C; enhancement of sensitivity compared to troxacitabine [3]: 1400 fold |
| CCCCCCCCCCCCNc1ccn([C@@H]2CO[C@H](CO)O2)c(=O)n1 [Compound 6j, (−)-(2S,4S)-1-[2-(Hydroxymethyl)-1,3-dioxolan-4-yl]-4-N-lauryl-cytosine] | 0.015 | 0.033 | decrease in IC50 / enhancement of sensitivity compared to troxacitabine [4]: 160 fold |
| CCCCCCCCCCCCCCCC(=O)Nc1ccn([C@@H]2CO[C@H](CO)O2)c(=O)n1 [Compound 6k, (−)-(2S,4S)-1-[2-(Hydroxymethyl)-1,3-dioxolan-4-yl]-4-N-palmitoyl-cytosine] | 0.004 | 0.02 |  |
| O=c1nc(NC2CC2)ccn1[C@@H]1CO[C@H](CO)O1 [Compound 6l, (−)-(2SAS)-1-[2-(Hydroxymethyl)-1,3-dioxolan-4-yl]-4-N-cyclopropyl-cytosine] |  |  | IC50 [1]: 18.7 µM; IC50 [2]: 22 µM |
| O=c1nc(NC2CCCC2)ccn1[C@@H]1CO[C@H](CO)O1 [Compound 6m, (−)-(2S,4S)-1-[2-(Hydroxymethyl)-1,3-dioxolan-4-yl]-4-N-cyclopentyl-cytosine] | 2.97 | 8.8 |  |
| O=c1nc(NC2CCCCC2)ccn1[C@@H]1CO[C@H](CO)O1 [Compound 6n, (−)-(2S,4S)-1-[2-(Hydroxymethyl)-1,3-dioxolan-4-yl]-4-N-cyclohexyl-cytosine] | 7.37 | 14 |  |
| O=C(Nc1ccn([C@@H]2CO[C@H](CO)O2)c(=O)n1)c1ccccc1 [Compound 6o, (−)-(2S,4S)-1-[2-(Hydroxymethyl)-1,3-dioxolan-4-yl]-4-N-benzoyl-cytosine] | 8.53 | 13.7 |  |
| O=C(Nc1ccn([C@@H]2CO[C@H](CO)O2)c(=O)n1)c1ccc(F)cc1 [Compound 6p, (−)-(2S,4S)-1-[2-(Hydroxymethyl)-1,3-dioxolan-4-yl]-4-N-(p-fluorobenzoyl)-cytosine] | 8.67 | 15.3 |  |
| O=C(Nc1ccn([C@@H]2CO[C@H](CO)O2)c(=O)n1)c1ccc(Cl)cc1 [Compound 6q, (−)-(2S,4S)-1-[2-(Hydroxymethyl)-1,3-dioxolan-4-yl]-4-N-(p-chlorobenzoyl)-cytosine] | 0.41 | 2.77 |  |
| O=C(Nc1ccn([C@@H]2CO[C@H](CO)O2)c(=O)n1)c1ccc(Br)cc1 [Compound 6r, (−)-(2S,4S)-1-[2-(Hydroxymethyl)-1,3-dioxolan-4-yl]-4-N-(p-bromobenzoyl)-cytosine] | 4.53 | 8.87 |  |
| COc1ccc(C(=O)Nc2ccn([C@@H]3CO[C@H](CO)O3)c(=O)n2)cc1 [Compound 6s, (−)-(2S,4S)-1-[2-(Hydroxymethyl)-1,3-dioxolan-4-yl]-4-N-(p-methoxybenzoyl)-cytosine] | 3.5 | 10 |  |
| O=C(Nc1ccn([C@@H]2CO[C@H](CO)O2)c(=O)n1)c1ccc(Cl)cc1Cl [Compound 6t, (−)-(2S,4S)-1-[2-(Hydroxymethyl)-1,3-dioxolan-4-yl]-4-N-(2,4-dichlorobenzoyl)-cytosine] | 9.83 | 14.3 | melting point: 185 to 187 °C |
| Nc1ccn([C@@H]2O[C@H](CO)[C@@H](O)[C@@H]2O)c(=O)n1 [Cytarabine, reference compound] | 0.62 | 10.5 |  |
| Nc1ccn([C@@H]2O[C@H](CO)[C@@H](O)C2(F)F)c(=O)n1 [Gemcitabine, reference compound] | 0.013 | 0.008 |  |
| Nc1ccn([C@@H]2CO[C@H](CO)O2)c(=O)n1 [Troxacitabine, (−)-2′-deoxy-3′-oxacytidine, reference compound] | 0.68 | 2.3 | plasma half-life [5]: 82 h; increase in the IC50 by dipyridamole (A549): 2 fold |
